For one experiment, the target named is human P2X3 receptor (Homo sapiens (Human), UniProt P56373). Kind of experiment: Evaluation of human P2X3 receptor inhibitory activity (Test Example 1-2, FLIPR 384, 384-well, 150 nM ATP). It counts as cell-based. Conditions: C6BU-1 cell transfected with human P2X3 receptor gene; method of Test Example 1-2 (compounds I-301 to I-483); read-out: IC50 (human P2X3 receptor inhibitory activity). The essentials: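 Human P2X3 stably expressed in C6BU-1 cells, Fluo-3-AM loaded, read on FLIPR at pH 7.5 HEPES buffer. Compound added 5 min before 150 nM ATP; peak/baseline fluorescence over 4 min gave inhibition (buffer instead of ATP = 100%), from which IC50 was derived.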
Sequence of human P2X3 receptor (P56373 whole entry): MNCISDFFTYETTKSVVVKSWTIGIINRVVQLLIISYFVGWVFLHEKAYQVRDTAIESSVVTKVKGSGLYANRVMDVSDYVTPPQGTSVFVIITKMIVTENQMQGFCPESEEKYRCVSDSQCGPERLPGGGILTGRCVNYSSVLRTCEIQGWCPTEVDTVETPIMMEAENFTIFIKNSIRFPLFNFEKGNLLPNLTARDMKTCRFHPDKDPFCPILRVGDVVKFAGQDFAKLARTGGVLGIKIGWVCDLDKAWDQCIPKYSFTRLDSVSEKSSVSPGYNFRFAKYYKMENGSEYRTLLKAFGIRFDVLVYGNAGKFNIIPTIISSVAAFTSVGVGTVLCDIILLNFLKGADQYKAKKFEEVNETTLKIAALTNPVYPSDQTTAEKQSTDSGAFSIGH
What is called IC50 is the point on the concentration scale where inhibition reaches its midpoint. As to `O=C(O)c1cccc(Oc2ccc(/N=c3\[nH]ccc(=O)n3Cc3ccc(Cl)cc3)cc2)n1` [Compound I-448], the IC50 was less than 30 µM.

With `O=c1cc[nH]/c(=N\c2ccc(Oc3ccon3)cc2)n1Cc1ccc(Cl)cc1` [Compound I-447], the IC50 was less than 30 µM. With `CSc1ncc(Nc2ccc(Oc3ccc(F)cn3)cc2)c(Cc2ccc(F)cc2)n1` [Compound I-479], the IC50 was less than 30 µM. On to `CC(C)(C)c1cc(Nc2ccc(Oc3cccc(C(N)=O)n3)cc2)n(Cc2ccc(Cl)cc2)n1` [Compound I-468, 3-t-butyl-1-(4-chlorobenzyl)-5-[4-(6-carbamoyl-2-pyridyloxy)phenylamino]pyrazole], for which the IC50 is less than 30 µM.

Still in this experiment, the particulars now being: human P2X3 receptor in C6BU-1 cells; Test Example 1-2 (compounds I-301 to I-483); read-out: P2X3 IC50.
Consider `CCn1c(=O)[nH]c(Nc2ccc(Oc3cccc(C(N)=O)n3)cc2)c(Cc2ccc(Cl)cc2)c1=O` [Compound I-458], for which the IC50 worked out at 0.015 µM. In the case of `CC(C)(C)c1c[nH]/c(=N\c2ccc(Oc3cccc(C(N)=O)n3)cc2)n(Cc2ccc(Cl)cc2)c1=O` [Compound I-482], the 50% inhibitory concentration (IC50) turned out to be 0.251 µM. Still for that read-out and setting: the result for `O=C(N[C@H]1COC[C@@H]1O)c1cn(Cc2ccc(Cl)cc2)c(Nc2ccc(Oc3cccc(F)n3)cc2)nc1=O` [Compound I-394] reads 0.011 µM; that for `NC(=O)CNC(=O)c1cn(Cc2ccc(Cl)cc2)c(Nc2ccc(Oc3cccc(F)n3)cc2)nc1=O` [Compound I-431], 0.044 µM; that for `O=c1c(-c2ncno2)c[nH]/c(=N\c2ccc(Oc3ccon3)cc2)n1Cc1ccc(Cl)cc1` [Compound I-449], 0.179 µM. The same measure, in the same setting: the result for `CC(C)c1c[nH]/c(=N\c2ccc(Oc3ccc(C(=O)O)cn3)cc2)n(Cc2ccc(Cl)cc2)c1=O` [Compound I-400] reads 0.016 µM; that for `COC(=O)c1cncc(Oc2ccc(/N=c3\[nH]cc(C(C)C)c(=O)n3Cc3ccc(Cl)cc3)cc2)c1` [Compound I-367], 0.471 µM.

For `Cc1noc(C)c1NC(=O)c1cn(Cc2ccc(Cl)cc2)c(Nc2ccc(Oc3cccc(F)n3)cc2)nc1=O` [Compound I-377], the IC50 turned out to be 0.037 µM.

As for `Cn1nccc1NC(=O)c1cn(Cc2ccc(Cl)cc2)c(Nc2ccc(Oc3cccc(F)n3)cc2)nc1=O` [Compound I-391], the IC50 was 0.03 µM.

Take `CC(C)(C)c1c[nH]/c(=N\c2ccc(Oc3cccc(C(=O)O)n3)cc2)n(Cc2ccc(Cl)cc2)c1=O` [Compound I-477]: the IC50 came to 0.005 µM.

`O=C(NCC1CCCC1)c1cn(Cc2ccc(Cl)cc2)c(Nc2ccc(Oc3cccc(F)n3)cc2)nc1=O` [Compound I-393]: the IC50 stood at 0.11 µM. Regarding `O=c1c(-c2nnc(CO)o2)c[nH]/c(=N\c2ccc(Oc3ccon3)cc2)n1Cc1ccc(Cl)cc1` [Compound I-399], the IC50 is 0.036 µM.

In the case of `CC(=O)NCCNC(=O)c1cn(Cc2ccc(Cl)cc2)c(Nc2ccc(Oc3cccc(F)n3)cc2)nc1=O` [Compound I-370], the IC50 was determined as 0.384 µM. Take `CNC(=O)CNC(=O)c1cn(Cc2ccc(Cl)cc2)c(Nc2ccc(Oc3cccc(F)n3)cc2)nc1=O` [Compound I-430]: the IC50 turned out to be 0.083 µM. As to `O=C(O)c1cccc(Oc2ccc(/N=c3\[nH]cc(-c4ccccn4)c(=O)n3Cc3ccc(Cl)cc3)cc2)n1` [Compound I-480], the 50% inhibitory concentration (IC50) worked out at 0.007 µM. Turning to `COC(=O)c1cc(Oc2ccc(/N=c3\[nH]cc(Nc4ccon4)c(=O)n3Cc3ccc(Cl)cc3)cc2)ccn1` [Compound I-320], the IC50 amounted to 0.019 µM. Regarding `COC(=O)CCCn1c(=O)cc(Nc2ccc(Oc3ccc(F)cn3)c(C)n2)n(Cc2ccc(Cl)cc2)c1=O` [Compound I-360], the IC50 came to 0.006 µM. On to `Cc1nc(Nc2cc(=O)n(CC(C)(C)C(=O)O)c(=O)n2C[C@H]2CC[C@H](C)CC2)ccc1Oc1ccc(F)cn1` [Compound I-445], for which the IC50 came out at 0.007 µM. For the compound `CC(C)c1c[nH]/c(=N\c2ccc(Oc3cncc(C(=O)O)c3)cc2)n(Cc2ccc(Cl)cc2)c1=O` [Compound I-401], the IC50 stood at 0.012 µM.

Regarding `CCC(=O)Nc1c[nH]/c(=N\c2ccc(Oc3ccc(C(F)(F)F)nn3)cc2)n(Cc2ccc(Cl)cc2)c1=O` [Compound I-411], the IC50 worked out at 0.01 µM. Same read-out and setting: in the case of `O=C(Nc1cn[nH]c1)c1cn(Cc2ccc(Cl)cc2)c(Nc2ccc(Oc3cccc(F)n3)cc2)nc1=O` [Compound I-395] it was 0.022 µM. Turning to `Cc1nc(Nc2cc(=O)n(CC(C)(C)C(=O)O)c(=O)n2Cc2ccc(Cl)cc2)ccc1Oc1ccc(F)cn1` [Compound I-365], the IC50 came out at 0.005 µM. `O=C1CCCN1c1c[nH]/c(=N\c2ccc(Oc3cccc(F)n3)cc2)n(Cc2ccc(Cl)cc2)c1=O` [Compound I-333]: the IC50 came to 0.149 µM. In the case of `COc1cn(Cc2ccc(Cl)cc2)c(Nc2ccc(Oc3cccc(C#N)n3)cc2)nc1=O` [Compound I-350], the IC50 was determined as 0.405 µM. Take `CCCn1c(=O)cc(Nc2ccc(Oc3cccc(C#N)c3)c(C)n2)n(Cc2ccc(C)cc2)c1=O` [Compound I-473]: the half-maximal inhibitory concentration (IC50) worked out at 0.029 µM. As to `COC(=O)C(C)(C)Cn1c(=O)cc(Nc2ccc(Oc3ccc(F)cn3)c(C)n2)n(Cc2ccc(Cl)cc2)c1=O` [Compound I-364], the IC50 amounted to 0.004 µM.

On to `O=C(NC[C@@H]1CCCO1)c1cn(Cc2ccc(Cl)cc2)c(Nc2ccc(Oc3cccc(F)n3)cc2)nc1=O` [Compound I-386], for which the IC50 is 0.015 µM. In the case of `O=C(O)c1coc(-c2c[nH]/c(=N\c3ccc(Oc4ccon4)cc3)n(Cc3ccc(Cl)cc3)c2=O)n1` [Compound I-454], the IC50 came out at 0.16 µM. Still for that read-out and setting: the result for `COC(=O)c1ccc(Oc2ccc(/N=c3\[nH]cc(-c4nc(C)no4)c(=O)n3Cc3ccc(Cl)cc3)cc2)nn1` [Compound I-312] reads 0.007 µM; that for `Cc1noc(-c2c[nH]/c(=N\c3ccc(Oc4cccc(C(N)=O)n4)cc3)n(Cc3ccc(Cl)cc3)c2=O)n1` [Compound I-316], 0.013 µM. Take `CC(C)c1c[nH]/c(=N\c2ccc(Oc3ncc(C(=O)O)s3)cc2)n(Cc2ccc(Cl)cc2)c1=O` [Compound I-412]: the IC50 came out at 0.009 µM. Same read-out and setting: the result for `CCCc1c[nH]/c(=N\c2ccc(Oc3cccc(C(=O)O)n3)cc2)n(Cc2ccc(Cl)cc2)c1=O` [Compound I-436] reads 0.013 µM; that for `CCCc1c[nH]/c(=N\c2ccc(Oc3cccc(C#N)n3)cc2)n(Cc2ccc(Cl)cc2)c1=O` [Compound I-434], 0.193 µM; that for `O=c1c(Nc2ccon2)c[nH]/c(=N\c2ccc(Oc3ccon3)cc2)n1Cc1ccc(Cl)cc1` [Compound I-307], 0.021 µM. For the compound `CCc1c[nH]c2cc(Nc3ncc(NC(=O)C4CCOCC4)c(=O)n3Cc3ccc(Cl)cc3)ccc12` [Compound I-416], the IC50 is 0.406 µM. Same read-out and setting: in the case of `N#Cc1cccc(Oc2ccc(/N=c3\[nH]cc(-c4ccccc4)c(=O)n3Cc3ccc(Cl)cc3)cc2)n1` [Compound I-408, 1-(4-chlorobenzyl)-2-[4-(6-cyano-2-pyridyloxy)phenylamino]-5-phenylpyrimidin-6(1H)-one] it was 0.407 µM.

As to `COC(=O)c1ccc(Oc2ccc(/N=c3\[nH]cc(C(C)C)c(=O)n3Cc3ccc(Cl)cc3)cc2)nc1` [Compound I-366], the IC50 amounted to 0.091 µM. The same measure, in the same setting: the result for `O=C(NCc1ccco1)c1cn(Cc2ccc(Cl)cc2)c(Nc2ccc(Oc3cccc(F)n3)cc2)nc1=O` [Compound I-369] reads 0.12 µM. Consider `O=C(NCc1ncco1)c1cn(Cc2ccc(Cl)cc2)c(Nc2ccc(Oc3cccc(F)n3)cc2)nc1=O` [Compound I-384], for which the IC50 was 0.06 µM. Still for that read-out and setting: the result for `O=C(NC1(CO)CCOCC1)c1cn(Cc2ccc(Cl)cc2)c(Nc2ccc(Oc3cccc(F)n3)cc2)nc1=O` [Compound I-390] reads 0.059 µM; that for `O=C1CCCN1C1=CN[C@@H](Nc2ccc(Oc3ccon3)cc2)N(Cc2ccc(Cl)cc2)C1=O` [Compound I-356], 0.212 µM. Consider `O=C(NC[C@H]1CCCO1)c1cn(Cc2ccc(Cl)cc2)c(Nc2ccc(Oc3cccc(F)n3)cc2)nc1=O` [Compound I-387], for which the IC50 came to 0.014 µM.

In the case of `O=C(O)c1cccc(Oc2ccc(/N=c3\[nH]cc(Br)c(=O)n3Cc3ccc(Cl)cc3)cc2)n1` [Compound I-440], the IC50 worked out at 0.015 µM. Consider `CCC(=O)Nc1c[nH]/c(=N\c2ccc(Oc3cccc(CC(=O)OC)c3)cc2)n(Cc2ccc(Cl)cc2)c1=O` [Compound I-331], for which the IC50 is 0.309 µM. With `CCC(=O)Nc1c[nH]/c(=N\c2ccc(Oc3cccc(CCC(=O)O)c3)cc2)n(Cc2ccc(Cl)cc2)c1=O` [Compound I-337], the IC50 was found to be 0.076 µM. In the case of `O=C(NC1CCOCC1)c1cn(Cc2ccc(Cl)cc2)c(Nc2ccc3nc(C(F)F)sc3c2)nc1=O` [Compound I-359], the IC50 stood at 0.057 µM. For `CC(=O)OCC(=O)NNC(=O)c1c[nH]/c(=N\c2ccc(Oc3ccon3)cc2)n(Cc2ccc(Cl)cc2)c1=O` [Compound I-343], the IC50 amounted to 0.084 µM. On the same count and under the same terms, the result for `CNC(=O)c1noc(-c2c[nH]/c(=N\c3ccc(Oc4ccon4)cc3)n(Cc3ccc(Cl)cc3)c2=O)n1` [Compound I-442] reads 0.08 µM; that for `COCCCNC(=O)c1cn(Cc2ccc(Cl)cc2)c(Nc2ccc(Oc3cccc(F)n3)cc2)nc1=O` [Compound I-373], 0.136 µM; that for `O=C(N[C@@H]1CCOC1)c1cn(Cc2ccc(Cl)cc2)c(Nc2ccc(Oc3cccc(F)n3)cc2)nc1=O` [Compound I-398], 0.022 µM. On to `CCCn1c(=O)c(F)c(Nc2ccc(Oc3cccc(C(=O)O)c3)cc2)n(Cc2ccc(Cl)cc2)c1=O` [Compound I-303], for which the IC50 was 0.109 µM.

In the case of `Cc1nc(Nc2cc(=O)n(CCCC(=O)O)c(=O)n2Cc2ccc(Cl)cc2)ccc1Oc1ccc(F)cn1` [Compound I-361], the IC50 worked out at 0.032 µM. Still for that read-out and setting: in the case of `O=C(O)c1cccc(Oc2ccc(/N=c3\[nH]cc(N4CCCC4=O)c(=O)n3Cc3ccc(Cl)cc3)cc2)n1` [Compound I-336] it was 0.041 µM. Same read-out and setting: the result for `Cc1nnc(-c2c[nH]/c(=N\c3ccc(Oc4cccc(C(N)=O)n4)cc3)n(Cc3ccc(Cl)cc3)c2=O)o1` [Compound I-329] reads 0.02 µM; that for `Cc1noc(-c2c[nH]/c(=N\c3ccc(Oc4ccc(C(=O)O)nn4)cc3)n(Cc3ccc(Cl)cc3)c2=O)n1` [Compound I-317], 0.013 µM.

Source of the values: patent US9550763B2, “Heterocyclic ring and carbocyclic derivative” (Shionogi & Co., Ltd., priority 2012, dated 2017).
